Reference: patent US10376520B2, “Methods for the treatment of cardiovascular disorders” (Galapagos NV, priority 2015, dated 2019)

Test system: RA patients
Assay: Atherogenic index, Study 1 (RA patients, add-on to MTX)
Type: in vivo, human
Method: As used herein, the term ‘atherogenic index’ refers to
Double-blind, placebo-controlled add on study in subjects with moderately to severely active RA who have an inadequate response to methotrexate (MTX) (oral or parenteral).
Compound 1 (dosed as a [Compound 1:HCl:3H2O]) is dosed for twelve weeks once daily (q.d.) (50 mg, 100 mg or 200 mg) or twice daily (b.i.d.) (25 mg, 50 mg or 100 mg); or placebo.
At Week 12, the subjects on placebo who have not achieved 20% improvement in swollen joint count (SJC66) and tender joint count (TJC68) are re-randomized automatically to receive Compound 1 (dosed as a [Compound 1:HCl:3H2O]) either at 100 mg q.d. or 50 mg b.i.d. doses in a blinded fashion; subjects on 50 mg q.d. who have not achieved 20% improvement in SJC66 and TJC68 will be assigned to 100 mg q.d. and subjects on 25 mg b.i.d. that have not achieved a 20% improvement in SJC66 and TJC68 will be assigned to 50 mg b.i.d. Subjects who switch treatment at week 12 are handled as if they discontinued at week 12 for the purpose of statistical analysis, whereas subjects in the other groups will maintain their randomized treatment until Week 24.
The atherogenic index has been identified to be a good predictor of cardiovascular disorders risks and is calculated as follows: […]

[1] = 25 mg b.i.d continued over 24 weeks, week 1
[2] = 25 mg b.i.d continued over 24 weeks, week 2
[3] = 25 mg b.i.d continued over 24 weeks, week 4
[4] = 25 mg b.i.d continued over 24 weeks, week 8
[5] = 25 mg b.i.d continued over 24 weeks, week 12
[6] = 25 mg b.i.d continued over 24 weeks, week 16
[7] = 25 mg b.i.d continued over 24 weeks, week 20
[8] = 25 mg b.i.d continued over 24 weeks, week 24
[9] = 50 mg b.i.d. continued over 24 weeks, week 1
[10] = 50 mg b.i.d. continued over 24 weeks, week 2
[11] = 50 mg b.i.d. continued over 24 weeks, week 4
[12] = 50 mg b.i.d. continued over 24 weeks, week 8
[13] = 50 mg b.i.d. continued over 24 weeks, week 12
[14] = 50 mg b.i.d. continued over 24 weeks, week 16
[15] = 50 mg b.i.d. continued over 24 weeks, week 20
[16] = 50 mg b.i.d. continued over 24 weeks, week 24
[17] = 50 mg q.d. continued over 24 weeks, week 1
[18] = 50 mg q.d. continued over 24 weeks, week 2
[19] = 50 mg q.d. continued over 24 weeks, week 4
[20] = 50 mg q.d. continued over 24 weeks, week 8
[21] = 50 mg q.d. continued over 24 weeks, week 12
[22] = 50 mg q.d. continued over 24 weeks, week 16
[23] = 50 mg q.d. continued over 24 weeks, week 20
[24] = 50 mg q.d. continued over 24 weeks, week 24
[25] = 100 mg b.i.d. continued over 24 weeks, week 1
[26] = 100 mg b.i.d. continued over 24 weeks, week 2
[27] = 100 mg b.i.d. continued over 24 weeks, week 4
[28] = 100 mg b.i.d. continued over 24 weeks, week 8
[29] = 100 mg b.i.d. continued over 24 weeks, week 12
[30] = 100 mg b.i.d. continued over 24 weeks, week 16
[31] = 100 mg b.i.d. continued over 24 weeks, week 20
[32] = 100 mg b.i.d. continued over 24 weeks, week 24
[33] = 100 mg q.d. continued over 24 weeks, week 1
[34] = 100 mg q.d. continued over 24 weeks, week 2
[35] = 100 mg q.d. continued over 24 weeks, week 4
[36] = 100 mg q.d. continued over 24 weeks, week 8
[37] = 100 mg q.d. continued over 24 weeks, week 12
[38] = 100 mg q.d. continued over 24 weeks, week 16
[39] = 100 mg q.d. continued over 24 weeks, week 20
[40] = 100 mg q.d. continued over 24 weeks, week 24

## O=C(Nc1nc2cccc(-c3ccc(CN4CCS(=O)(=O)CC4)cc3)n2n1)C1CC1 [Compound 1, cyclopropanecarboxylic acid {5-[4-(1,1-dioxo-thiomorpholin-4-ylmethyl)-phenyl]-[1,2,4]triazolo[1,5-a]pyridin-2yl}-amide]
[1]
  Atherogenic index Mean CFB - 24 weeks results: 0.08 mmol/L
  Atherogenic index Mean percentage CFB - 24 weeks results: 2.78%
  Atherogenic index Median CFB - 24 weeks results: 0.10 mmol/L
[2]
  Atherogenic index Mean CFB - 24 weeks results: -0.01 mmol/L
  Atherogenic index Mean percentage CFB - 24 weeks results: 0.75%
  Atherogenic index Median CFB - 24 weeks results: 0.00 mmol/L
[3]
  Atherogenic index Mean CFB - 24 weeks results: -0.02 mmol/L
  Atherogenic index Mean percentage CFB - 24 weeks results: 0.43%
  Atherogenic index Median CFB - 24 weeks results: 0.00 mmol/L
[4]
  Atherogenic index Mean CFB - 24 weeks results: -0.05 mmol/L
  Atherogenic index Mean percentage CFB - 24 weeks results: −0.86%
  Atherogenic index Median CFB - 24 weeks results: -0.10 mmol/L
[5]
  Atherogenic index Mean CFB - 24 weeks results: 0.05 mmol/L
  Atherogenic index Mean percentage CFB - 24 weeks results: 2.68%
  Atherogenic index Median CFB - 24 weeks results: 0.00 mmol/L
[6]
  Atherogenic index Mean CFB - 24 weeks results: -0.03 mmol/L
  Atherogenic index Mean percentage CFB - 24 weeks results: 0.32%
  Atherogenic index Median CFB - 24 weeks results: 0.00 mmol/L
[7]
  Atherogenic index Mean CFB - 24 weeks results: 0.09 mmol/L
  Atherogenic index Mean percentage CFB - 24 weeks results: 4.42%
  Atherogenic index Median CFB - 24 weeks results: 0.00 mmol/L
[8]
  Atherogenic index Mean CFB - 24 weeks results: 0.02 mmol/L
  Atherogenic index Mean percentage CFB - 24 weeks results: 2.01%
  Atherogenic index Median CFB - 24 weeks results: 0.00 mmol/L
[9]
  Atherogenic index Mean CFB - 24 weeks results: -0.06 mmol/L
  Atherogenic index Mean percentage CFB - 24 weeks results: −0.30%
  Atherogenic index Median CFB - 24 weeks results: 0.00 mmol/L
[10]
  Atherogenic index Mean CFB - 24 weeks results: -0.21 mmol/L
  Atherogenic index Mean percentage CFB - 24 weeks results: −4.55%
  Atherogenic index Median CFB - 24 weeks results: -0.10 mmol/L
[11]
  Atherogenic index Mean CFB - 24 weeks results: -0.14 mmol/L
  Atherogenic index Mean percentage CFB - 24 weeks results: −2.75%
  Atherogenic index Median CFB - 24 weeks results: -0.10 mmol/L
[12]
  Atherogenic index Mean CFB - 24 weeks results: -0.18 mmol/L
  Atherogenic index Mean percentage CFB - 24 weeks results: −3.44%
  Atherogenic index Median CFB - 24 weeks results: -0.10 mmol/L
[13]
  Atherogenic index Mean CFB - 24 weeks results: -0.07 mmol/L
  Atherogenic index Mean percentage CFB - 24 weeks results: −0.87%
  Atherogenic index Median CFB - 24 weeks results: 0.00 mmol/L
[14]
  Atherogenic index Mean CFB - 24 weeks results: -0.13 mmol/L
  Atherogenic index Mean percentage CFB - 24 weeks results: −2.57%
  Atherogenic index Median CFB - 24 weeks results: -0.10 mmol/L
[15]
  Atherogenic index Mean CFB - 24 weeks results: -0.11 mmol/L
  Atherogenic index Median CFB - 24 weeks results: -0.10 mmol/L
[16]
  Atherogenic index Mean CFB - 24 weeks results: -0.04 mmol/L
  Atherogenic index Mean percentage CFB - 24 weeks results: 0.23%
  Atherogenic index Median CFB - 24 weeks results: 0.00 mmol/L
[17]
  Atherogenic index Mean CFB - 24 weeks results: -0.02 mmol/L
  Atherogenic index Mean percentage CFB - 24 weeks results: −0.40%
  Atherogenic index Median CFB - 24 weeks results: -0.10 mmol/L
[18]
  Atherogenic index Mean CFB - 24 weeks results: -0.15 mmol/L
  Atherogenic index Mean percentage CFB - 24 weeks results: −3.84%
  Atherogenic index Median CFB - 24 weeks results: -0.20 mmol/L
[19]
  Atherogenic index Mean CFB - 24 weeks results: -0.11 mmol/L
  Atherogenic index Mean percentage CFB - 24 weeks results: −2.94%
  Atherogenic index Median CFB - 24 weeks results: -0.10 mmol/L
[20]
  Atherogenic index Mean CFB - 24 weeks results: 0.00 mmol/L
  Atherogenic index Mean percentage CFB - 24 weeks results: 0.36%
  Atherogenic index Median CFB - 24 weeks results: -0.10 mmol/L
[21]
  Atherogenic index Mean CFB - 24 weeks results: 0.01 mmol/L
  Atherogenic index Mean percentage CFB - 24 weeks results: 1.11%
  Atherogenic index Median CFB - 24 weeks results: 0.00 mmol/L
[22]
  Atherogenic index Mean CFB - 24 weeks results: -0.01 mmol/L
  Atherogenic index Mean percentage CFB - 24 weeks results: 0.09%
  Atherogenic index Median CFB - 24 weeks results: 0.00 mmol/L
[23]
  Atherogenic index Mean CFB - 24 weeks results: -0.08 mmol/L
  Atherogenic index Mean percentage CFB - 24 weeks results: −1.32%
  Atherogenic index Median CFB - 24 weeks results: -0.10 mmol/L
[24]
  Atherogenic index Mean CFB - 24 weeks results: -0.12 mmol/L
  Atherogenic index Mean percentage CFB - 24 weeks results: −3.08%
  Atherogenic index Median CFB - 24 weeks results: -0.10 mmol/L
50 mg q.d., week 1
  Atherogenic index Mean CFB: -0.02 mmol/L
  Atherogenic index Mean percentage CFB - 12 weeks results: 0%
  Atherogenic index Median CFB - 12 weeks results: -0.10 mmol/L
50 mg q.d., week 2
  Atherogenic index Mean CFB: -0.13 mmol/L
  Atherogenic index Mean percentage CFB - 12 weeks results: −3%
  Atherogenic index Median CFB - 12 weeks results: -0.20 mmol/L
50 mg q.d., week 4
  Atherogenic index Mean CFB: -0.11 mmol/L
  Atherogenic index Mean percentage CFB - 12 weeks results: −3%
  Atherogenic index Median CFB - 12 weeks results: -0.10 mmol/L
50 mg q.d., week 8
  Atherogenic index Mean CFB: -0.03 mmol/L
  Atherogenic index Mean percentage CFB - 12 weeks results: 0%
  Atherogenic index Median CFB - 12 weeks results: -0.10 mmol/L
50 mg q.d., week 12
  Atherogenic index Mean CFB: 0.01 mmol/L
  Atherogenic index Mean percentage CFB - 12 weeks results: 2%
  Atherogenic index Median CFB - 12 weeks results: 0.00 mmol/L
[25]
  Atherogenic index Mean CFB - 24 weeks results: -0.05 mmol/L
  Atherogenic index Mean percentage CFB - 24 weeks results: −0.38%
  Atherogenic index Median CFB - 24 weeks results: 0.00 mmol/L
[26]
  Atherogenic index Mean CFB - 24 weeks results: -0.19 mmol/L
  Atherogenic index Mean percentage CFB - 24 weeks results: −4.84%
  Atherogenic index Median CFB - 24 weeks results: -0.20 mmol/L
[27]
  Atherogenic index Mean CFB - 24 weeks results: -0.30 mmol/L
  Atherogenic index Mean percentage CFB - 24 weeks results: −6.94%
  Atherogenic index Median CFB - 24 weeks results: -0.30 mmol/L
[28]
  Atherogenic index Mean CFB - 24 weeks results: -0.18 mmol/L
  Atherogenic index Mean percentage CFB - 24 weeks results: −3.54%
  Atherogenic index Median CFB - 24 weeks results: -0.20 mmol/L
[29]
  Atherogenic index Mean CFB - 24 weeks results: -0.24 mmol/L
  Atherogenic index Mean percentage CFB - 24 weeks results: −4.76%
  Atherogenic index Median CFB - 24 weeks results: -0.20 mmol/L
[30]
  Atherogenic index Mean CFB - 24 weeks results: -0.25 mmol/L
  Atherogenic index Mean percentage CFB - 24 weeks results: −5.23%
  Atherogenic index Median CFB - 24 weeks results: -0.30 mmol/L
[31]
  Atherogenic index Mean CFB - 24 weeks results: -0.24 mmol/L
  Atherogenic index Mean percentage CFB - 24 weeks results: −5.40%
  Atherogenic index Median CFB - 24 weeks results: -0.20 mmol/L
[32]
  Atherogenic index Mean CFB - 24 weeks results: -0.18 mmol/L
  Atherogenic index Mean percentage CFB - 24 weeks results: −3.70%
  Atherogenic index Median CFB - 24 weeks results: -0.20 mmol/L
[33]
  Atherogenic index Mean CFB - 24 weeks results: -0.06 mmol/L
  Atherogenic index Mean percentage CFB - 24 weeks results: −0.13%
  Atherogenic index Median CFB - 24 weeks results: -0.10 mmol/L
[34]
  Atherogenic index Mean CFB - 24 weeks results: -0.17 mmol/L
  Atherogenic index Mean percentage CFB - 24 weeks results: −2.80%
  Atherogenic index Median CFB - 24 weeks results: -0.10 mmol/L
[35]
  Atherogenic index Mean CFB - 24 weeks results: -0.11 mmol/L
  Atherogenic index Median CFB - 24 weeks results: -0.10 mmol/L
[36]
  Atherogenic index Mean CFB - 24 weeks results: -0.11 mmol/L
  Atherogenic index Mean percentage CFB - 24 weeks results: −1.34%
  Atherogenic index Median CFB - 24 weeks results: -0.10 mmol/L
[37]
  Atherogenic index Mean CFB - 24 weeks results: -0.06 mmol/L
  Atherogenic index Mean percentage CFB - 24 weeks results: −0.45%
  Atherogenic index Median CFB - 24 weeks results: -0.10 mmol/L
[38]
  Atherogenic index Mean CFB - 24 weeks results: -0.18 mmol/L
  Atherogenic index Mean percentage CFB - 24 weeks results: −3.49%
  Atherogenic index Median CFB - 24 weeks results: -0.20 mmol/L
[39]
  Atherogenic index Mean CFB - 24 weeks results: -0.27 mmol/L
  Atherogenic index Mean percentage CFB - 24 weeks results: −5.64%
  Atherogenic index Median CFB - 24 weeks results: -0.35 mmol/L
[40]
  Atherogenic index Mean CFB - 24 weeks results: -0.17 mmol/L
  Atherogenic index Mean percentage CFB - 24 weeks results: −3.81%
  Atherogenic index Median CFB - 24 weeks results: -0.30 mmol/L
100 mg q.d., week 1
  Atherogenic index Mean CFB: -0.06 mmol/L
  Atherogenic index Mean percentage CFB - 12 weeks results: 0%
  Atherogenic index Median CFB - 12 weeks results: -0.10 mmol/L
100 mg q.d., week 2
  Atherogenic index Mean CFB: -0.17 mmol/L
  Atherogenic index Mean percentage CFB - 12 weeks results: −3%
  Atherogenic index Median CFB - 12 weeks results: -0.10 mmol/L
100 mg q.d., week 4
  Atherogenic index Mean CFB: -0.11 mmol/L
  Atherogenic index Mean percentage CFB - 12 weeks results: −2%
  Atherogenic index Median CFB - 12 weeks results: -0.10 mmol/L
100 mg q.d., week 8
  Atherogenic index Mean CFB: -0.11 mmol/L
  Atherogenic index Mean percentage CFB - 12 weeks results: −1%
  Atherogenic index Median CFB - 12 weeks results: -0.10 mmol/L
100 mg q.d., week 12
  Atherogenic index Mean CFB: -0.06 mmol/L
  Atherogenic index Mean percentage CFB - 12 weeks results: 0%
